Literature values, collected in patent US7976880B2, “Pregnane glycoside compositions and Caralluma extract products and uses thereof” (priority 2003, dated 2011).
Read-outs that look alike come from different tables or passages of the source.

Tested on: appetite
Conditions: 3 mg per kg body weight

SMILES: O=C(O)CC(O)(C(=O)O)C(O)C(=O)O (single isomer, unassigned; (-)) [HCA, (−)-hydroxycitrate]
- Reduction in appetite (at 6.5 hours): about 43%
- Reduction in appetite (at 24 hours): about 29%
